Entries after “also recorded” stand apart in the source; their conditions may differ. Where a name gives a salt, the structure may show the parent alone.
Assays:
[1] = system: rats; test: Stereotyped behavior of rats (rating scale; score, onset and duration); assay type: in vivo, rat (male Sprague-Dawley); details: for Duration of Effect (stereotypy): complete when scores ≤3; for Stereotypy Score for 30 min after MDO--NPA: maximum possible 18.0, N=5
Method: (§1) Male Sprague-Dawley (Charles River Labs.) rats (initially 175-200 g) were housed four per cage, with free access to food and water, under controlled lighting (on 7:00 a.m. to 7:00 p.m.), constant temperature 21°-23° C. and controlled humidity (40-50%). Aporphines were administered, as described below, freshly dissolved in 1 mM citric acid mixed with 0.9% (w/v) saline (1:4, vols.); this solvent was also used as a vehicle ("placebo") control. Haloperidol was given in the same medium; 2-diethyl aminoethyl-2,2 diphenylvalerate HCl (SKF-525A) was given in saline.
Stereotyped behavior was evaluated by a trained observer according to a rating scale method reported previously (Campbell and Baldessarini, 1981a). Briefly, the ratings were as follows: 0, no stereotypy, normal locomotion; 1, discontinuous sniffing, reduced locomotion; 2, continuous sniffing, only periodic exploration; 3, continuous sniffing, mouth movements, infrequent, exploratory activity, Ratings were made each 10 min. by observation for 30 sec, typically for 60 min. (maximum score=18.0/hour).
In all experiments except those which evaluated the time-course of drug effects, rats were given an injection of vehicle and then allowed to rest for 15 min. to adapt to nonspecific arousal effects, prior to a second injection of test agent (or placebo) and immediate behavioral testing. Behavioral data were evaluated by Student's t-test and are always expressed as mean ±SEM.
Data are mean values ±SEM for N=6 rats per group given doses of each aporphine (1mg/kg/, or approximately 3 umole/kg) by orogastric intubation (P.O.), or subcutaneous (S.C.) or intraperitoneal (I.P.) injection. Stereotypy was rated for one hour as described in Methods and duration is defined as complete when scores diminished to ≤3 (out of a maximum possible score of 18).
Data are mean values ±SEM (N=4 to 8 rats per condition). […] N.D. indicates "not determined." (*) Indicates a significant difference by t-test between control and oxidase inhibitor-pretreated rats (p<0.01).
Stereotypy was rated for 60 min as described in Methods. Data are means SEM (stereotypy scores, when 18=maximum in 1 hour) for N=6 rats per group; (*) indicates p<0.0001 by t test.
Data are mean values ±SEM (N=3 to 6 rats per condition) for effects of seven aporphine compounds (R=substituents, keyed to the structure above). Full chemical names for all compounds are provided in Methods. […] Data are provided for a dose of 10 mg/kg (i.p.), although doses of 1 and 5 mg/kg were also tested.

[2] = system: Adenylate cyclase; test: Adenylate cyclase stimulation (cAMP) in rat striatal homogenates; assay type: biochemical; details: 100 μM; control (no addition) 2.38 ± 0.14; N=4
From the text: of cAMP in rat striatal homogenates; inhibition of binding of

[3] = system: rats; test: Catalepsy (maintenance of abnormal posture on bar); assay type: in vivo, rat (male Sprague-Dawley); details: i.p.
Method: as §1
Catalepsy was assessed as described in detail elsewhere (Campbell and Baldessarini, 1981a; 1981b, Life Sciences 29 1341-46). Briefly, rats were evaluated every 10 min. by timing (stopwatch) their maintenance of an abnormal posture with forelimbs on a 1 cm-diameter steel bar parallel to, and 8 cm above the bench, so that the rat rested on its hindquarters only; 60 sec. was taken as a maximum and nearly all normal untreated rats remained on the bar for less than 5 sec. […]
In all experiments except those which evaluated the time-course of drug effects, rats were given an injection of vehicle and then allowed to rest for 15 min. to adapt to nonspecific arousal effects, prior to a second injection of test agent (or placebo) and immediate behavioral testing. […]

[4] = system: duodenal ulcers; test: Cysteamine-induced duodenal ulcer in the rat; details: for Duodenal Ulcer Intensity (Scale: 0-3): control 1.8; for Duodenal Ulcer Incidence (Positive/Total): control 10/12
[5] = system: gastric acid output; test: Cysteamine induced gastric acid output; assay type: in vivo, rat; details: for INITIAL OUTPUT (gastric acid): at opening of gastric fistula, control 187 ± 20; for Gastric acid output, 1 hr: control 68 ± 17; for Gastric acid output, 6 hr: control 91 ± 12; for Gastric acid output, 7 hr: control 99 ± 10; for Gastric acid output, 5 hr: control 104 ± 18; for Gastric acid output, 4 hr: control 110 ± 25; for Gastric acid output, 3 hr: control 141 ± 32; for Gastric acid output, 2 hr: control 195 ± 48; for TOTAL OUTPUT (gastric acid): control 1043 ± 102
Method: (A) In addition, rats of all groups were given cysteamine HCL, 15 mg. 100
g p.o. × 1, 30 min. after (the last dose of) MDO--NPA.
(B) At the opening of gastric fistula

[6] = 50 μg/100g s.c. once daily seven days
[7] = 100 μg/100g s.c. once daily seven days
[8] = group 3: 0.1 mg/100 g × 1 day, 1 week
[9] = group 3: 0.1 mg/100 g × 1 day, 1 week, P < 0.01
[10] = group 3: 0.1 mg/100 g × 1 day, 1 week, P < 0.001
[11] = group 3: 0.1 mg/100 g × 1 day, 1 week, P < 0.09

CCCN1CCc2cccc3c2[C@H]1Cc1ccc2c(c1-3)OCO2 [MDO-NPA, (-) 10, 11-methylenedioxy-N-n-propylnoraporphine-HCl]
Stereotypy Score ([1]; 1 mg/kg I.P., rated one hour, maximum 18, N=6, mean ±SEM): 16.5 ± 0.8 | Duration of Effect (stereotypy) ([1]; 1 mg/kg I.P.): 116 ± 12 min | Duration of Effect (stereotypy) ([1]; 1 mg/kg P.O.): 112 ± 20 min | Stereotypy Score ([1]; 1 mg/kg S.C., rated one hour, maximum 18, N=6, mean ±SEM): 17.5 ± 0.4 | Duration of Effect (stereotypy) ([1]; 1 mg/kg S.C.): 106 ± 10 min | Stereotypy Score for 30 min after MDO--NPA ([1]; 1 mg/kg i.p.): 16.5 ± 1.2 | Stereotypy Score for 30 min after MDO--NPA ([1]; 1 mg/kg p.o.): 15.5 ± 1.6 | Stereotypy Score ([1]; MDO-NPA 0.3 mg/kg, haloperidol 0, 60 min, maximum 18, N=6): 11.6 ± 0.8 | Stereotypy Score ([1]; MDO-NPA 0.3 mg/kg, haloperidol 0.3 mg/kg 30 min before, p<0.0001): 0.3 ± 0.2 | Stereotypy Score ([1]; MDO-NPA 0.3 mg/kg, haloperidol 1.0 mg/kg 30 min before, p<0.0001): 0.3 ± 0.2 | Stereotypy Score ([1]; MDO-NPA 1.0 mg/kg, haloperidol 0, 60 min, maximum 18, N=6): 16.6 ± 0.4 | Stereotypy Score ([1]; MDO-NPA 1.0 mg/kg, haloperidol 0.3 mg/kg 30 min before, p<0.0001): 0.5 ± 0.2 | Stereotypy Score ([1]; MDO-NPA 1.0 mg/kg, haloperidol 1.0 mg/kg 30 min before, p<0.0001): 1.2 ± 0.4 | Stereotypy ([1]; SKF-525A 40 mg/kg i.p. before MDO-NPA 0.30 mg/kg i.p., p<0.01 vs control): 1.7 ± 0.6 | Stereotypy ([1]; SKF-525A 40 mg/kg i.p. before MDO-NPA 1.0 mg/kg i.p., p<0.01 vs control): 0.8 ± 0.2 | Stereotypy ([1]; SKF-525A 40 mg/kg i.p. before MDO-NPA 3.0 mg/kg i.p., p<0.01 vs control): 0.8 ± 0.5 | Stereotypy ([1]; control (vehicle pretreated), MDO-NPA 0.30 mg/kg i.p., score over one hour): 12.8 ± 0.6 | Stereotypy ([1]; control (vehicle pretreated), MDO-NPA 1.0 mg/kg i.p., score over one hour): 16.5 ± 0.1 | Stereotypy ([1]; control (vehicle pretreated), MDO-NPA 3.0 mg/kg i.p., score over one hour): 16.2 ± 0.9 | dependence of duration of action on dose ([1]; i.p.): consistent increase in duration of action with increased dose | duration of stereotyped behavioral effects vs other agents ([1]; i.p., for MDO-NPA at doses above 1 μmole/kg): exceeded that of NPA | Adenylate cyclase stimulation (cAMP) [2]: 2.92 ± 0.32 pmol/assay | dose of maximum effect, catalepsy [3]: 0.3 µmol/kg | catalepsy ([3]; doses similar to those which inhibited general activity): strong catalepsy | Duodenal Ulcer Intensity (Scale: 0-3) [4, 6]: 0.8 | Duodenal Ulcer Incidence (Positive/Total) [4, 6]: 4/6 | Duodenal Ulcer Intensity (Scale: 0-3) [4, 7]: 0.5 | Duodenal Ulcer Incidence (Positive/Total) [4, 7]: 3/6 | effect on incidence and intensity of duodenal ulcers and gastric acid output, oral ([4]; administered orally): reduces the incidence and intensity of duodenal ulcers and the gastric acid output | dose effective in preventing ulcers ([4]; once daily for seven days before cysteamine-hydrochloride): 50 micrograms per hundred grams of body weight | effect on cysteamine-induced duodenal ulcers ([4]; rats given cysteamine): significant prevention of experimental duodenal ulcers; also recorded: virtually abolished | effect of a single high dose on duodenal ulcers ([4]; single high dose): active | INITIAL OUTPUT (gastric acid) ([5]; group 2: × 1 day, P < 0.001): 47 ± 13 μ Eq | Gastric acid output, 1 hr ([5]; group 2: × 1 day): 28 ± 18 μ Eq | Gastric acid output, 6 hr ([5]; group 2: × 1 day, P < 0.01): 20 ± 11 μ Eq | Gastric acid output, 7 hr ([5]; group 2: × 1 day, P < 0.001): 18 ± 6 μ Eq | Gastric acid output, 5 hr ([5]; group 2: × 1 day, P < 0.01): 10 ± 3 μ Eq | Gastric acid output, 4 hr ([5]; group 2: × 1 day, P < 0.09): 17 ± 8 μ Eq | Gastric acid output, 3 hr ([5]; group 2: × 1 day): 81 ± 40 μ Eq | Gastric acid output, 2 hr ([5]; group 2: × 1 day): 66 ± 29 μ Eq | TOTAL OUTPUT (gastric acid) ([5]; group 2: × 1 day, P < 0.001): 288 ± 67 μ Eq | INITIAL OUTPUT (gastric acid) [5, 8]: 120 ± 36 μ Eq | Gastric acid output, 1 hr [5, 8]: 29 + 10 μ Eq | Gastric acid output, 6 hr [5, 9]: 18 ± 14 μ Eq | Gastric acid output, 7 hr [5, 10]: 9 ± 4 μ Eq | Gastric acid output, 5 hr [5, 9]: 17 ± 7 μ Eq | Gastric acid output, 4 hr [5, 9]: 14 ± 6 μ Eq | Gastric acid output, 3 hr [5, 11]: 36 ± 9 μ Eq | Gastric acid output, 2 hr [5, 11]: 66 + 21 μ Eq | TOTAL OUTPUT (gastric acid) [5, 10]: 306 ± 62 μ Eq

— patent publication US4543256A, “(-)-10,1L Methylenedioxy-N-N-propylnoraporphine and methods employing it for inhibiting the effects of epileptic seizures and for prevention and treatment of duodenal ulcers” (Northeastern University, priority 1982, dated 1985)
